{
  "source": "patent US20050101621A1",
  "about": "“Method for rapid detoxification of addiction” (priority 2003, published 2005)",
  "assay": "general anesthesia assisted opiate detoxification with high-rate opiod antagonist infusion",
  "assay_type": "in vivo, patient",
  "description": "Treatment begins by providing the patient with Valium, Xanax and Trazedone, which are taken orally. The patient's vitals are then monitored using such equipment as an electrocardiogram, pulse oxymeter, blood pressure monitor, ETCO2 monitor, oxygen sensor, and tidol volume monitor. An intravenous (IV) line is then set-up and general anesthesia is induced, preferably using Valium, Propofol and Mivacron. These anesthetizing agents are suited to facilitate endotracheal (ET) intubation.\nOnce the anesthesia takes effect, an endotracheal tube is appropriately placed through the patient's oral cavity and the patient retrieves to spontaneous respirations over the next few minutes. A Precedex infusion is then started, preferably at […], to achieve cardiovascular stability. Next antiemetics and antiperistaltic agents are then administered. In accordance with the preferred method the antiemetics and antiperistaltic agents comprise dexamethazone somatostatin and robinul; other similar agents can be employed. An antihistamine agent, e.g., Benedryl, is then given.\nNext, a Naloxone (or its generic counterpart Narcane) infusion is started at rate of 0.6 mg/kg/hr for one hour, i.e., 0.6 mg/hr per unit of the patient's metric weight. In accordance with the present invention, Naloxone is administered at rate greater than 1.5 mg/hr. […]",
  "data": [
    {"smiles": "C=CCN1CC[C@]23c4c5ccc(O)c4O[C@H]2C(=O)CC[C@@]3(O)[C@H]1C5", "note": "[Naloxone]", "values": [
      {"measurement": "medical risk to the patient of high-rate Naloxone administration", "setting": "infusion 0.6 mg/kg/hr for one hour (30 mg/hr for 50 kg, approximately 50 mg/hr for 75 kg), patient anesthetized", "result": "does not expose a patient to a severe medical risk"},
      {"measurement": "risk to the patient of Naloxone administration", "setting": "rate of 1.4 mg/kg/hr", "result": "without exposing the patient to unnecessary risks"}
    ]}
  ]
}
